The subject of data set [1] is HeLa (cervix carcinoma). Briefly: Cytostatic activity, Coulter counter. In kind it is cell-based, human. The conditions noted are these: Homo sapiens, HeLa; 72 h, cell number by Coulter counter; read-out: Tumour cell growth/IC50 HeLa. As for the experimental part: (§1) The experiments were carried out on six human tumour and one murine cell lines, which are derived from five solid tumour types and two (one murine and one human) suspension tumour cell lines. The following cell lines were used: HCT 116 (colon carcinoma), SW 620 (colon carcinoma), MCF-7 (breast carcinoma), H 460 (lung carcinoma), L1210 (murine leukemia), CEM (human lymphoma) and HeLa (cervix carcinoma). […] Compounds 3d and 3e with a benzene ring in the amide moiety, exerted a somewhat stronger (but still rather poor) cytostatic effect (IC50 ≈ 20-90 µM). […] The compounds were also equally cytostatic against primary human embryonic lung (HEL) fibroblast cells (Table 2). The obtained data clearly point to the obligatory presence of the [4-chloro-3-(trifluoromethyl)phenyl]carbamoyl group being crucial for high potency. Also, the 4a–e series of compounds are far more lipophilic than the 2 and 3 series of compounds, which may be related to their increased cytostatic potential.
(§2) The cytostatic activity of the tested compounds against murine leukemia L1210, human cervix carcinoma HeLa, human embrionic lung (HEL) and T-lymphocyte CEM cells was determined with cells grown in suspension (L1210, CEM) or monolayers (HeLa, HEL) in 200 µL-wells of 96-well microtiter plates (initial cell number: 5–7.5 × 10^4 cells/well). After 48 (L1210) or 72 (CEM, HeLa, HEL) h, the tumour cell number was determined by the use of a Coulter counter.

Data set [2] has as its system L1210 (murine leukemia). Briefly: Cytostatic activity, Coulter counter. The conditions noted are these: Mus musculus, L1210; 48 h, cell number by Coulter counter; read-out: Tumour cell growth/IC50 L1210. In kind it is cell-based. How it is done: as §1, §2
Data set [3] deals with primary human embryonic lung (HEL) fibroblast cells. The experiment in a line: Cytostatic activity, Coulter counter. The class given is cell-based. The note with it: Homo sapiens, Fibroblast; 72 h, cell number by Coulter counter; primary fibroblasts. How it is done: as §1, §2
Data set [4] concerns CEM (human lymphoma). Briefly: Cytostatic activity, Coulter counter. In kind it is cell-based. The note with it: Homo sapiens; 72 h, cell number by Coulter counter; read-out: Tumour cell growth/IC50 CEM. As for the experimental part: as §1, §2
Data set [5] deals with SW 620 (colon carcinoma). The experiment in a line: Cytostatic activity, MTT assay. In kind it is cell-based, human. The conditions noted are these: Homo sapiens, SW-620, 72 h, read-out: Tumour cell growth/IC50 SW 620. As for the experimental part: as §1
(§3) HCT 116, SW 620, MCF-7, and H 460 cells were cultured as monolayers and maintained in Dulbecco’s modified Eagle medium (DMEM), supplemented with 10% fetal bovine serum (FBS), 2 mmol·L^–1 L-glutamine, 100 U·mL^–1 penicillin and 100 μg·mL^–1 streptomycin in a humidified atmosphere with 5% CO2 at 37 °C. The growth inhibition activity was assessed as described previously, according to the slightly modified procedure of the National Cancer Institute, Developmental Therapeutics Program. Briefly, the cells were seeded onto standard 96-well microtiter plates on day 0. The cell concentrations were adjusted according to the cell population doubling time (PDT): 3000 cells/well for HCT116 and SW 620 cell lines (PDT = 20–24 h) and 4,000 cells/well for MCF-7 cell lines (PDT = 33 h). Tested agents were then added in five consecutive 10-fold dilutions (10^–8 to 10^–4 mol·L^–1) and incubated for further 72 h. Working dilutions were freshly prepared on the day of testing. The solvent (DMSO) was also tested for eventual inhibitory activity by adjusting its concentration to be the same as in working concentrations (maximal concentration of DMSO was 0.25%). After 72 h of incubation, the cell growth rate was evaluated by performing the MTT assay (Promega) which detects dehydrogenase activity in viable cells. The absorbency (OD, optical density) was measured on a microplate reader at 570 nm. Each test point was performed in quadruplicate in at least three individual experiments. The results are expressed as IC50, which is the concentration necessary for 50% of inhibition. […] Each result is a mean value from three separate experiments.

Data set [6] has as its system MCF-7 (breast carcinoma). Briefly: Cytostatic activity, MTT assay. In kind it is cell-based, human. The conditions noted are these: Homo sapiens, MCF7, 72 h, read-out: Tumour cell growth/IC50 MCF-7. As for the experimental part:
as §1, §3

Data set [7] deals with H 460 (lung carcinoma). The experiment in a line: Cytostatic activity, MTT assay. The class given is cell-based, human. The conditions noted are these: Homo sapiens, NCI-H460, 72 h, read-out: Tumour cell growth/IC50 H 460. As for the experimental part:
as §1, §3
In general terms: Tetrazolium dyes change colour on reduction, which living cells bring about.

Data set [8] relates to HCT 116 (colon carcinoma). Briefly: Cytostatic activity, MTT assay. In kind it is cell-based, human. The conditions noted are these: Homo sapiens, HCT-116, 72 h, read-out: Tumour cell growth/IC50 HCT 116. How it is done:
as §1, §3

The test system of data set [9] is DNA synthesis in CEM cells. Briefly: Antimetabolic activity: [CH3-3H]dThd incorporation (DNA synthesis) in CEM cell cultures. In kind it is cell-based. The conditions noted are these: Homo sapiens, CCRF-CEM, ~20 h, TCA-insoluble material. The text has this: (§4) A variety of compounds (2a, 3a, 4a with a cycloalkyl substituent directly attached to nitrogen atom, 2c, 3c, 4c with a cycloalkyl bound to nitrogen through a short spacer and 2e, 3e, 4e with an aromatic substituent) have been investigated on their inhibitory activity against DNA, RNA and protein synthesis in CEM cell cultures. The compounds were equally inhibitory to dThd (DNA synthesis), Urd (RNA synthesis) and Leu (protein synthesis) incorporation into TCA-insoluble cell material. The 2 series of compounds were least inhibitory whereas the 4 series were most inhibitory (IC50 in the lower micromolar range). Their antimetabolic IC50 values closely corresponded to their antiproliferative IC50 values. They also behaved as sorafenib in terms of antimetabolic potential (Table 3).
(§5) The procedures have been modified from previously described methods. Human CEM cells were seeded in 96-well microtiter plates at 10 × 10^4 cells/200 µL-well in the presence of serial dilutions of the tested compounds. Then, 0.25 µCi of [CH3-^3H]dThd (radiospecificity: 52 Ci/mmol) or 1 µCi of [5-^3H]Urd (radiospecificity: 26 Ci/mmol) or [4,5-^3H]Leu (radiospecificity: 160 Ci/mmol) were added and the drug-exposed tumour cell cultures further incubated at 37 °C for ~20 h. Then the content of each well was transfered to glass fiber discs (Wattman, GE Healthcare, Maidstone, UK), mounted on a manifold (Millipore, Billerica, MA, USA) and subsequently washed with PBS (to remove the radiolabel material that has not been incorporated in the cellular macromolecules), 10% and 5% trichoroacetic acid (TCA) (to precipitate DNA, RNA and proteins) and ethanol. Then, the radioactivity (TCA precipitate) associated with each disc was determined in a liquid scintillation counter (Packard, Palo Alto, CA, USA).

For data set [10], the system named is protein synthesis in CEM cells. Briefly: Antimetabolic activity: [4,5-3H]Leu incorporation (protein synthesis) in CEM cell cultures. The conditions noted are these: Homo sapiens, CCRF-CEM, ~20 h, TCA-insoluble material. In kind it is cell-based.
Excerpt: as §4, §5

In data set [11] the test system is RNA synthesis in CEM cells. The experiment in a line: Antimetabolic activity: [5-3H]Urd incorporation (RNA synthesis) in CEM cell cultures. The class given is cell-based. The note with it: Homo sapiens, CCRF-CEM, ~20 h, TCA-insoluble material.
Excerpt: as §4, §5

The text below walks through data of publication PMC6268433, “New Sorafenib Derivatives: Synthesis, Antiproliferative Activity Against Tumour Cell Lines and Antimetabolic Evaluation” (Molecules, 2012).

As a reminder, the melting point is the temperature of the solid-liquid transition.

Molecules are shown by their SMILES. Some results are limits rather than exact numbers.

`O=C(NC1CCCCC1)c1cc(Cl)ccn1` [Compound 2b, 4-Chloro-N-cyclohexylpyridine-2-carboxamide] displayed a melting point of 116 to 119 °C. Moreover, in data set [1], the IC50 was over 100 µM. In addition, the IC50 in data set [2] was over 100 µM. Moreover, the IC50 in [3] is over 100 µM. In addition, the IC50 in data set [4] was over 100 µM. Further, the IC50 in data set [5] is over 100 µM. Besides, the IC50 in [6] was at least 100 µM. In addition, in data set [7], the IC50 was found to be 35 ± 12 µM. For the same compound, the IC50 in data set [8] was over 100 µM.

Compound `O=C(NCC1CCCCC1)c1cc(Cl)ccn1` [Compound 2c, 4-Chloro-N-cyclohexylmethylpyridine-2-carboxamide] returned a melting point of 107 to 108 °C. Besides, the IC50 in [1] was over 100 µM. In data set [2], the IC50 is over 100 µM. The compound further gave an IC50 in [3] of over 100 µM. In addition, the IC50 in [4] was over 100 µM. The compound also came in with an IC50 in [9] of over 100 µM. The IC50 in [5] is at least 100 µM. Also, in data set [6], the IC50 is at least 100 µM. Further, the IC50 in data set [7] is over 100 µM. The IC50 in [8] was at least 100 µM. The same compound showed an IC50 in data set [10] of over 100 µM. The IC50 in data set [11] was over 100 µM.

As for `O=C(NCc1ccccc1)c1cc(Cl)ccn1` [Compound 2d, 4-Chloro-N-benzylpyridine-2-carboxamide], the melting point was in the range of 70 to 72 °C. Moreover, the IC50 in data set [1] was over 100 µM. In addition, the IC50 in data set [2] is at least 100 µM. Moreover, in [3], the IC50 is over 100 µM. Also, the IC50 in data set [4] is at least 100 µM. For the same compound, the IC50 in data set [5] amounted to 71 ± 28 µM. Moreover, the IC50 in [6] is at least 100 µM. In [7], the IC50 is over 100 µM. Besides, the IC50 in [8] is at least 100 µM.

On to `O=C(NCCc1ccccc1)c1cc(Cl)ccn1` [Compound 2e, 4-Chloro-N-phenylethylpyridine-2-carboxamide], for which the IC50 in data set [1], in data set [2], in data set [3], in data set [4], in data set [9] and in data set [5] was over 100 µM in each case. Further, the IC50 in data set [6] is 57 ± 46 µM; in data set [7], over 100 µM; in [8], at least 100 µM; in data set [10], over 100 µM; in [11] it was over 100 µM.

`Nc1ccc(Oc2ccnc(C(=O)NC3CCCCC3)c2)cc1` [Compound 3b, 4-(4-Aminophenoxy)-N-cyclohexylpyridine-2-carboxamide]: the melting point fell in the range of 150 to 153 °C. For the same compound, the IC50 in data set [1] was over 100 µM. Also, in data set [2], the IC50 was 234 ± 4.5 µM. The IC50 in [3] is over 100 µM. In [4], the IC50 was over 100 µM. In addition, in [5], the IC50 is at least 100 µM. Further, in data set [6], the IC50 was at least 100 µM. In addition, the IC50 in [7] was found to be 65 ± 33 µM. The IC50 in [8] was 37 ± 1 µM.

`Nc1ccc(Oc2ccnc(C(=O)NCC3CCCCC3)c2)cc1` [Compound 3c, 4-(4-Aminophenoxy)-N-cyclohexylmethylpyridine-2-carboxamide] came in with a melting point of 135 to 137 °C. Moreover, the IC50 in data set [1] is over 100 µM. The IC50 in data set [2] worked out at 163 ± 147 µM. The same compound showed an IC50 in [3] of over 100 µM. Moreover, in data set [4], the IC50 was over 100 µM. This compound also registered an IC50 in data set [9] of over 100 µM. In addition, the IC50 in data set [5] is at least 100 µM. Moreover, the IC50 in data set [6] is at least 100 µM. Also, the IC50 in [7] was over 100 µM. Moreover, in data set [8], the IC50 is at least 100 µM. In addition, in data set [10], the IC50 is 70.6 ± 27.6 µM. In data set [11], this compound gave an IC50 of 92.1 ± 43 µM.

With `O=C(Nc1ccc(Oc2ccnc(C(=O)NC3CCCCC3)c2)cc1)Nc1ccc(Cl)c(C(F)(F)F)c1` [Compound 4b, 4-[4-[[4-Chloro-3-(trifluoromethyl)phenyl]carbamoylamino]phenoxy]-N-cyclohexyl-pyridine-2-carboxamide], the IC50 was determined as 3 ± 0.2 µM in data set [1]; 3.2 ± 1.7 µM in [2]; 3.2 ± 0.2 µM in data set [3]; 3.6 ± 0.9 µM in [4]; 3 ± 0.2 µM in [5]; 2 ± 0.6 µM in [6]. The IC50 in data set [7] is 2 µM; in data set [8], 3 ± 0.8 µM.

For the compound `O=C(Nc1ccc(Oc2ccnc(C(=O)NCc3ccccc3)c2)cc1)Nc1ccc(Cl)c(C(F)(F)F)c1` [Compound 4d, 4-[4-[[4-Chloro-3-(trifluoromethyl)phenyl]carbamoylamino]phenoxy]-N-benzyl-pyridine-2-carbox-amide], the melting point is 160 to 163 °C. In data set [1], the IC50 was 2.6 ± 0.6 µM. In addition, the IC50 in data set [2] worked out at 2 ± 0.4 µM. Besides, the IC50 in data set [3] was 3.1 ± 0.2 µM. Besides, in [4], the IC50 came out at 4.3 ± 0.4 µM. For the same compound, in data set [5], the IC50 worked out at 2 ± 0.08 µM. For the same compound, the IC50 in [6] came out at 2 ± 0.2 µM. Besides, the IC50 in data set [7] was 2 ± 0.2 µM. In data set [8], the IC50 is 2 ± 0.8 µM.

As for `O=C(Nc1ccc(Oc2ccnc(C(=O)NCCc3ccccc3)c2)cc1)Nc1ccc(Cl)c(C(F)(F)F)c1` [Compound 4e, 4-[4-[[4-Chloro-3-(trifluoromethyl)phenyl]carbamoylamino]phenoxy]-N-phenylethyl-pyridine-2-carboxamide], the IC50 in [1] was determined as 1.7 ± 0.2 µM; in data set [2] it was 2.2 ± 0.2 µM; in [3], 4.6 ± 0.36 µM; in data set [4], 2.5 ± 0.9 µM; in data set [9], 12.7 ± 9 µM; in [5] it was 2 ± 0.4 µM. In addition, the IC50 worked out at 2 ± 0.1 µM in data set [6]; 2 ± 0.2 µM in data set [7]; 3 ± 0.7 µM in data set [8]; 11.8 ± 7.7 µM in data set [10]; 6.6 ± 1.8 µM in [11].
